Measurements published in patent US8765786B2, “1-substituted indazole derivative” (Dainippon Sumitomo Pharma Co., Ltd., priority 2012, dated 2014).

Biological target: T1, human α7 nAChR (Homo sapiens, UniProt P36544)
T1 construct: expressed in transfected cells; host or cells: GH4C1 cells derived from rat pituitary (ATCC CCL-82.2)
Assay: Evaluation of PAM activity with human α7 nACh receptor stably expressing cells (aequorin luminescence, FDSS7000)
Type: cell-based
Conditions: for activity at 10 µM / α7PAM (%) @ 10 μmol/L: test compound 10 μmol/L, ACh added at EC20, ratio of RLU (Max-Min) of test wells to control wells; for activity at 10 µM: read-out: α7PAM (%) @ 10 μmol/L; for PAM activity for α7 nAChR: result in words, ratio of RLU (Max-Min) to control wells, ACh EC20
Excerpt: Human α7 nAChR stably expressing cells were generated and cultured. In detail, GH4C1 cells derived from rat pituitary (cat#CCL-82.2, ATCC, USA) were used as a host cell. PcDNA3.1Zeo vector containing a nucleotide sequence encoding a protein GenBank BAC81731 and pcDNA3.1 vector containing human α7 nAChR gene (cat#V790-20, invitrogen, Carlsbad, Calif., USA) were transfected to the cells to give aequorins and human α7 nAChR stably expressing cells respectively. The aequorins and human α7 nAChR stably expressing cells were screened with Zeocin (cat#R25001, invitrogen, Carlsbad, Calif., USA) and Geneticin (cat #10131-027, invitrogen, Carlsbad, Calif., USA) respectively.
The cells were cultured in F-10 Nutrient Mixture (Ham) medium (cat #11550-043, invitrogen, Carlsbad, Calif., USA) containing 2.5% fetal bovine serum (cat #2917354, ICN Biomedicals, Inc, USA), 15% inactivated horse serum (cat #26050-088, invitrogen, Carlsbad, Calif., USA), 1 μg/mL Geneticin, and 5 μg/mL Puromycin (cat #14861-84, invitrogen, Carlsbad, Calif., USA), in a Collagen Type 1-coated dish (cat #4030-010, iwaki, Tokyo, Japan). During the culture, the medium was replaced with fresh medium in every 2 to 3 days, and the cells were treated with TrypLE Express (cat #45604-021, invitrogen, Carlsbad, Calif., USA) to collect them in every 7 days. Thus, the cells were subcultured.
7 Days after subculturing, the cells were treated with TrypLE Express to collect them when they were about 80% confluent. The cells were suspended in a reaction medium containing Hanks (cat #14065-056, invitrogen, Carlsbad, Calif., USA)/20 mmol/L Hepes (cat #15630-080, invitrogen, Carlsbad, Calif., USA), Buffer (pH 7.4), F-10 Nutrient Mixture (Ham), and 0.1 mg/mL Geneticin, and the suspension was seeded in a 384-well plate (cat #781090, Greiner, Germany) at 20000 cells/25 μL per well.
On the next day after seeding, Viviren (cat#E649X, Promega, Madison, Wis., USA) was added to the medium so that the final concentration could be 4 μmol/L (15 μL/well). The plates were centrifuged and then placed in the dark for 4 hours at room temperature.
Each of the test compounds was dissolved in DMSO to prepare each test sample at a concentration of 1000-fold the final concentration. To the solution was added Hanks/20 mM HEPES/0.2% BSA (cat#A3803, Sigma, St. Louis, Mo., USA), and the concentration was adjusted to 6-fold the final concentration.
FDSS7000 (Hamamatsu Photonics) was used to detect the luminescence signal evoked by α7 nAChR stimulation. The cells and a luminescent substrate were put on a plate, and the test sample was added thereto. […] After the addition of ACh, the luminescence signal (the central wavelength: 465 nm) was measured for 138 seconds to calculate RLU (Max-Min). The ratio of the RLU (Max-Min) of the test-compound-containing wells to that of the control wells was defined as PAM activity.

T1 sequence (P36544 23-502): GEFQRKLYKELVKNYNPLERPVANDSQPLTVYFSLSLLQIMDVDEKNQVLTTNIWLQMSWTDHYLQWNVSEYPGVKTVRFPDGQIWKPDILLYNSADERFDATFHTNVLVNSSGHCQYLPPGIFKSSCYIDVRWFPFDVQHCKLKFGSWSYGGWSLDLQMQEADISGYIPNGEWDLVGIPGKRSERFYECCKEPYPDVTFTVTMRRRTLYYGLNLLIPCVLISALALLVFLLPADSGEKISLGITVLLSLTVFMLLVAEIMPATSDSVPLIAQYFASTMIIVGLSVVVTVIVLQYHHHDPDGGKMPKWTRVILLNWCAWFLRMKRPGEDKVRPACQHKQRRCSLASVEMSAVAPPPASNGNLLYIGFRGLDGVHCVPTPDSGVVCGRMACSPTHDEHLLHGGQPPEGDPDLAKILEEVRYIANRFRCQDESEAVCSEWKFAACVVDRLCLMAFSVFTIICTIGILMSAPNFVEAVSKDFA

Compound	α7PAM (%) @ 10 μmol/L	other results
O=C(NC1CCCOC1)N1CCC(n2ncc3cc(OC(F)(F)F)ccc32)CC1 (stereo not shown) [Example 300, N-(tetrahydro-2H-pyran-3-yl)-4-[5-(trifluoromethoxy)-1H-indazol-1-yl]piperidine-1-carboxamide]		activity at 10 µM: 376%
CCc1ccc2c(cnn2C2CCN(C(=O)c3ccc(F)cn3)CC2)c1 [Example 118]	188%	
Cc1ccc2c(cnn2C2CCN(C(=O)NC3CCCC(F)(F)C3)CC2)c1 (stereo not shown) [Example 82]	888%	
O=C(NC1CCCOC1)N1CCC(n2ncc3cc(C4CC4)ccc32)CC1 (stereo not shown) [Example 177]	712%	
CCOc1nn(C2CCN(C(=O)NC3CCOCC3)CC2)c2ccc(CC)cc12 [Example 2, 4-(3-ethoxy-5-ethyl-1H-indazol-1-yl)-N-(tetrahydro-2H-pyran-4-yl)piperidine-1-carboxamide]		activity at 10 µM: 625%
COC1CCC(NC(=O)N2CCC(n3ncc4cc(OC(C)C)ccc43)CC2)CC1 (stereo not shown) [Example 47]	375%	
COC1CCC(NC(=O)N2CCC(n3nc(C)c4cc(C)ccc43)CC2)CC1 (stereo not shown) [Example 89]	1506%	
CCc1ccc2c(cnn2C2CCN(C(=O)NC3CCC(F)(F)CC3)CC2)c1 [Example 23]		PAM activity for α7 nAChR: stronger PAM activity than others
COc1c(C)ccc2c1cnn2C1CCN(C(=O)NC2CCOCC2)CC1 [Example 268]	361%	
CCc1cnc2c(cnn2C2CCN(C(=O)NC3CCC(F)(F)CC3)CC2)c1 [Example 99]	755%	
CCN(C(=O)N1CCC(n2ncc3ccccc32)CC1)C1CCC(OC)CC1 (stereo not shown) [Example 51]	295%	
O=C(NC1CCC(F)(F)CC1)N1CCC(n2ncc3cc(C4CC4)ccc32)CC1 [Example 77]	1780%	
O=C(NC1CCC(OC(F)F)CC1)N1CCC(n2ncc3cc(C4CC4)ccc32)CC1 (stereo not shown) [Example 205]	1187%	
CCOc1nn(C2CCN(C(=O)NC3CCC(OC)CC3)CC2)c2ccc(CC)cc12 (stereo not shown) [Example 57]	382%	
Cc1ccc2c(c1)c(C1CCOCC1)nn2C1CCN(C(=O)NC2CCC(F)(F)CC2)CC1 [Example 52, N-(4,4-difluorocyclohexyl)-4-(5-methyl-3-(tetrahydro-2H-pyran-4-yl)-1H-indazol-1-yl)piperidine-1-carboxamide]		activity at 10 µM: 366%
COC(C)c1c(C)ccc2c1cnn2C1CCN(C(=O)N[C@H]2CC[C@H](OC)CC2)CC1 (stereo partly shown) [Example 233]	307%	
CCc1cnc2c(cnn2C2CCN(C(=O)NC3CCC(OC)CC3)CC2)c1 (stereo not shown) [Example 100]	198%	
[2H]C([2H])([2H])O[C@H]1CC[C@H](NC(=O)N2CCC(n3ncc4cc(C)ccc43)CC2)CC1 [Example 295, 4-(5-methyl-1H-indazol-1-yl)-N-{trans-4-[(^2H3)methoxy]cyclohexyl}piperidine-1-carboxamide]	1143%	
COc1ccc(-c2ccc3c(cnn3C3CCN(C(=O)NC4CCC(F)(F)CC4)CC3)c2)cc1 [Example 156]	358%	
Cc1ccc2c(cnn2C2CCN(C(=O)NC3CCC(F)(F)CC3)CC2)c1 [Example 13, N-(4,4-difluorocyclohexyl)-4-(5-methyl-1H-indazol-1-yl)piperidine-1-carboxamide]		PAM activity for α7 nAChR: stronger PAM activity than others
[2H]C([2H])([2H])O[C@H]1CC[C@H](NC(=O)N2CCC(n3ncc4cc(C(F)(F)F)ccc43)CC2)CC1 [Example 178, N-{trans-4-[(^2H3)methoxy]cyclohexyl}-4-[5-(trifluoromethyl)-1H-indazol-1-yl]piperidine-1-carboxamide]	524%	
COc1ccc2c(cnn2C2CCN(C(=O)NC3CCCC3(F)F)CC2)c1 (stereo not shown) [Example 88]	1063%	
COc1nn(C2CCN(C(=O)NC3CCOCC3)CC2)c2ccc(C(F)(F)F)cc12 [Example 266]	448%	
COC(C)Cc1ccc2c(cnn2C2CCN(C(=O)NC3CCC(F)(F)CC3)CC2)c1 (stereo not shown) [Example 251]	868%	
CCCc1ccc2c(cnn2C2CCN(C(=O)C3CCOCC3)CC2)c1 [Example 108]	207%	
COC1CCC(C(=O)N2CCC(n3ncc4cc(C5CC5)ccc43)CC2)CC1 (stereo not shown) [Example 141]	448%	
O=C(NC1CCCC1)N1CCC(n2ncc3cc(Cl)ccc32)CC1 [Example 33, 4-(5-chloro-1H-indazol-1-yl)-N-cyclopentylpiperidine-1-carboxamide]		activity at 10 µM: 430%
Cc1ccc2c(cnn2C2CCN(C(=O)NC3CCCCC3)CC2)c1 [Example 8, N-cyclohexyl-4-(5-methyl-1H-indazol-1-yl)piperidine-1-carboxamide]		PAM activity for α7 nAChR: stronger PAM activity than others
COc1ccc2c(c1)c(C)nn2C1CCN(C(=O)N[C@H]2CC[C@H](OC)CC2)CC1 [Example 242]	901%	

Now from value to compound, other results behind:

α7PAM (%) @ 10 μmol/L	Compound	other results
276%	COCC1CCC(NC(=O)N2CCC(n3ncc4cc(OC(F)(F)F)ccc43)CC2)CC1 (stereo not shown) [Example 228]	
1031%	COCC1CCC(NC(=O)N2CCC(n3ncc4cc(Br)ccc43)CC2)CC1 (stereo not shown) [Example 238]	
1230%	CCc1ccc2c(cnn2[C@H]2CC[C@@H](NC(=O)[C@H]3CC[C@@H](OC)CC3)CC2)c1 [Example 124]	
1109%	COc1c(Br)ccc2c1cnn2C1CCN(C(=O)NC2CCC(F)(F)CC2)CC1 [Example 284]	
267%	CCOc1ccc2c(cnn2C2CCN(C(=O)C3CCCCC3)CC2)c1 [Example 109]	
2215%	CCc1ccc2c(cnn2C2CCN(C(=O)NC3CCCC3)CC2)c1 [Example 20]	PAM activity for α7 nAChR: stronger PAM activity than others
257%	CO[C@H]1CC[C@H](NC(=O)N2CCC(n3ncc4c(F)c(C)ccc43)CC2)CC1 [Example 223]	
291%	CCOc1ccc2c(cnn2C2CCN(C(=O)C3CCCC3)CC2)c1 [Example 110]	
338%	CCc1cnc2c(cnn2C2CCN(C(=O)NC3CCOCC3)CC2)c1 [Example 101]	
325%	CCc1ccc2c(cnn2[C@H]2CC[C@@H](C(=O)NC3CCOCC3)CC2)c1 [Example 129]	
340%	O=C(NC1CCOCC1)N1CCC(n2ncc3cc(C(F)(F)F)ccc32)CC1 [Example 297]	
232%	O=C(NCc1ccc(C(F)(F)F)cc1)N1CCC(n2ncc3cc(C4CC4)ccc32)CC1 [Example 195]	
364%	COC1CC1c1ccc2c(cnn2C2CCN(C(=O)N[C@H]3CC[C@H](OC)CC3)CC2)c1 (stereo partly shown) [Example 246]	
207%	COCc1c(C)ccc2c1cnn2C1CCN(C(=O)N[C@H]2CC[C@H](OC)CC2)CC1 [Example 214]	
271%	CC(=O)N1CCC(NC(=O)N2CCC(n3ncc4cc(C5CC5)ccc43)CC2)CC1 [Example 203]	
190%	O=C(C1CCOCC1)N1CCC(n2ncc3cc(F)ccc32)CC1 [Example 104]	
430%	COCc1nn(C2CCN(C(=O)NC3CCCCC3)CC2)c2ccc(C)cc12 [Example 68]	
433%	CCc1ccc2c(c1)c(OC(C)C)nn2C1CCN(C(=O)NC2CCC(OC)CC2)CC1 (stereo not shown) [Example 59]	
801%	COc1ccc2c(c1)c(C1CC1)nn2C1CCN(C(=O)N[C@H]2CC[C@H](OC)CC2)CC1 [Example 257]	
